Several values for one entry are separate records, joined by “and”; a condition that tells them apart may be missing. Equal entries are not always repeated. Results filed as inconclusive are left out.

This experiment concerns Nude mice, LX-1 lung xenograft intrarenal, tumor weight T/C. As to the kind of experiment: NCI In Vivo Anticancer Drug Screen. Data for tumor model Human Lung LX-1 Xenograft (intrarenal inoculation) in NU/NU BALB/C (nude) mice. As to conditions: endpoint: mean tumor weight change, higher = larger tumour. The protocol: The antitumor activity of compounds was measured in mice bearing transplantable tumors. Survival or tumor size were measured and the results are expressed as the measurement made in the treated group (T) divided by the measurement made in the vehicle treated control group (C). The tumor model used in this assay is Human Lung LX-1 Xenograft (intrarenal inoculation) in NU/NU BALB/C (nude) mice
(In general: A xenograft is tissue or cells of one species grown in another, often human tumour cells in immunodeficient mice.)

The mark [1] stands for this setting: dose: 4.0 mg/kg/injection, schedule: Q01DX010 (sc), vehicle: saline.
Where [2] appears, read: dose: 300.0 mg/kg/injection, schedule: Q04DX003 (sc), vehicle: Klucel (hydroxypropylcellulose) (HPC).
The mark [3] stands for this setting: dose: 600.0 mg/kg/injection, schedule: Q04DX003 (sc), vehicle: Klucel (hydroxypropylcellulose) (HPC).

For `COC(=O)CC(N)C(=O)O` (centres undefined), the T/C (dose: 300.0 mg/kg/injection, schedule: Q04DX003 (sc), vehicle: saline) was 84 % of control; the T/C (dose: 600.0 mg/kg/injection, schedule: Q04DX003 (sc), vehicle: saline) was 80 % of control; the T/C (dose: 1200.0 mg/kg/injection, schedule: Q04DX003 (sc), vehicle: saline) was 55 % of control; the T/C (dose: 2400.0 mg/kg/injection, schedule: Q04DX003 (sc), vehicle: saline) is 54 % of control.

Take `Nc1nc(Br)nc2c1ncn2C1CC(O)C(CO)O1` (centres undefined): the T/C reads like this: (dose: 7.5 mg/kg/injection, schedule: Q03DX003 (ip), vehicle: saline) 66 % of control; (dose: 15.0 mg/kg/injection, schedule: Q03DX003 (ip), vehicle: saline) 77 % of control; (dose: 30.0 mg/kg/injection, schedule: Q03DX003 (ip), vehicle: saline) 72 % of control; (dose: 60.0 mg/kg/injection, schedule: Q03DX003 (ip), vehicle: saline) 59 % of control; (dose: 120.0 mg/kg/injection, schedule: Q03DX003 (ip), vehicle: saline) 74 % of control.

As to `NNC(=S)N/N=C/c1ccccn1`, the T/C runs as follows: (dose: 15.0 mg/kg/injection, schedule: Q04DX003 (sc), vehicle: saline with Tween-80) 78 % of control; (dose: 30.0 mg/kg/injection, schedule: Q04DX003 (sc), vehicle: saline with Tween-80) 95 % of control; (dose: 60.0 mg/kg/injection, schedule: Q04DX003 (sc), vehicle: saline with Tween-80) 94 % of control.

Regarding `O=C(O)C1(NO)CCCCC1`, the T/C by setting is: (dose: 200.0 mg/kg/injection, schedule: Q04DX003 (sc), vehicle: Klucel (hydroxypropylcellulose) (HPC)) 81 % of control; (dose: 400.0 mg/kg/injection, schedule: Q04DX003 (sc), vehicle: Klucel (hydroxypropylcellulose) (HPC)) 85 % of control; (dose: 800.0 mg/kg/injection, schedule: Q04DX003 (sc), vehicle: Klucel (hydroxypropylcellulose) (HPC)) 81 % of control; (dose: 1600.0 mg/kg/injection, schedule: Q04DX003 (sc), vehicle: Klucel (hydroxypropylcellulose) (HPC)) 77 % of control.

Take `CNC(=O)O/N=C(\CN=[N+]=[N-])C(C)(C)C`: under “dose: 1.25 mg/kg/injection, schedule: Q04DX003 (sc), vehicle: saline”, the T/C is 73 % of control.

For `COc1cccc2c1C(=O)c1c(O)c3c(c(O)c1C2=O)CC(O)(/C(C)=N/NC(=O)CCC(=O)N/N=C(\C)C1(O)Cc2c(O)c4c(c(O)c2C(OC2CC(N)C(O)C(C)O2)C1)C(=O)c1c(OC)cccc1C4=O)CC3OC1CC(N)C(O)C(C)O1` (centres undefined), the T/C was 65 % of control (dose: 6.25 mg/kg/injection, schedule: Q01DX010 (sc), vehicle: water) and 23 % of control (dose: 12.5 mg/kg/injection, schedule: Q01DX010 (sc), vehicle: water).

With `N[C@@H](Cc1ccc(N(CCCl)CCCl)cc1)C(=O)O`, the T/C was 94 % of control (dose: 1.0 mg/kg/injection, schedule: Q01DX010 (sc), vehicle: saline); 47 % of control (dose: 2.0 mg/kg/injection, schedule: Q01DX010 (sc), vehicle: saline); 13 % of control under setting [1]; -19 % of control (dose: 8.0 mg/kg/injection, schedule: Q01DX010 (sc), vehicle: saline).

As to `Cc1c(CNc2ccc(C(=O)NC(CC(=O)O)C(=O)O)cc2)ccc2nc(N)nc(N)c12` (centres undefined), the T/C (dose: 12.5 mg/kg/injection, schedule: Q04DX003 (sc), vehicle: saline with Tween-80) was 100 % of control; the T/C (dose: 25.0 mg/kg/injection, schedule: Q04DX003 (sc), vehicle: saline with Tween-80) is 71 % of control; the T/C (dose: 50.0 mg/kg/injection, schedule: Q04DX003 (sc), vehicle: saline with Tween-80) is 32 % of control.

Consider `CC[C@H]1CN2CCc3cc(OC)c(OC)cc3[C@@H]2C[C@@H]1C[C@H]1NCCc2cc(OC)c(OC)cc21`, for which the T/C under setting [1] was 81 % of control.

Turning to `CC[C@@]1(O)C(=O)OCc2c1cc1n(c2=O)Cc2cc3ccccc3nc2-1`, the T/C by setting is: (dose: 5.0 mg/kg/injection, schedule: Q04DX003 (sc), vehicle: saline with Tween-80) 15 % of control; (dose: 10.0 mg/kg/injection, schedule: Q04DX003 (sc), vehicle: saline with Tween-80) 5 % of control and 12 % of control; (dose: 20.0 mg/kg/injection, schedule: Q04DX003 (sc), vehicle: saline with Tween-80) 3 % of control and 4 % of control.

For the compound `Cc1cc(=NO)cc(C)n1O`, the T/C was 102 % of control (dose: 300.0 mg/kg/injection, schedule: Q04DX003 (sc), vehicle: distilled water + alcohol); 102 % of control (dose: 600.0 mg/kg/injection, schedule: Q04DX003 (sc), vehicle: distilled water + alcohol); 60 % of control (dose: 1200.0 mg/kg/injection, schedule: Q04DX003 (sc), vehicle: distilled water + alcohol).

With `CCCCCc1cc(/C=C2/N=C(c3ccc[nH]3)C=C2OC)[nH]c1C`, the T/C reads like this: (dose: 8.0 mg/kg/injection, schedule: Q04DX003 (sc), vehicle: saline with Tween-80) 73 % of control; (dose: 16.0 mg/kg/injection, schedule: Q04DX003 (sc), vehicle: saline with Tween-80) 54 % of control; (dose: 32.0 mg/kg/injection, schedule: Q04DX003 (sc), vehicle: saline with Tween-80) 59 % of control; (dose: 64.0 mg/kg/injection, schedule: Q04DX003 (sc), vehicle: saline with Tween-80) 67 % of control.

For the compound `NC1=NC(=O)N2CC12` (centres undefined), the T/C reads like this: (dose: 50.0 mg/kg/injection, schedule: Q04DX003 (sc), vehicle: saline) 101 % of control; (dose: 100.0 mg/kg/injection, schedule: Q04DX003 (sc), vehicle: saline) 102 % of control; (dose: 200.0 mg/kg/injection, schedule: Q04DX003 (sc), vehicle: saline) 108 % of control.

With `Cc1cnc(/C=N\NC(N)=S)c2cccc(N)c12`, the T/C is, setting by setting: (dose: 31.75 mg/kg/injection, schedule: Q04DX003 (ip), vehicle: saline with Tween-80) 74 % of control; (dose: 62.5 mg/kg/injection, schedule: Q04DX003 (ip), vehicle: saline with Tween-80) 89 % of control; (dose: 125.0 mg/kg/injection, schedule: Q04DX003 (ip), vehicle: saline with Tween-80) 49 % of control.

As to `COCC(O)Cn1ccnc1[N+](=O)[O-]` (centres undefined), for the setting “dose: 2400.0 mg/kg/injection, schedule: Q04DX003 (sc), vehicle: suspension in saline”, the T/C was 104 % of control.

Consider `CCOC(=O)C(N)CSC(=O)NC` (centres undefined), for which the T/C is 82 % of control (dose: 150.0 mg/kg/injection, schedule: Q04DX003 (ip), vehicle: saline); 52 % of control (dose: 300.0 mg/kg/injection, schedule: Q04DX003 (ip), vehicle: saline); 102 % of control (dose: 600.0 mg/kg/injection, schedule: Q04DX003 (ip), vehicle: saline).

Consider `CNc1nc(N(C)C)nc(N(C)C)n1`, for which the T/C was 169 % of control (dose: 30.0 mg/kg/injection, schedule: Q01DX010 (sc), vehicle: other) and 29 % of control (dose: 60.0 mg/kg/injection, schedule: Q01DX010 (sc), vehicle: other).

On to `Cc1c(-c2ccc(-c3ccccc3F)cc2)nc2ccc(F)cc2c1C(=O)O`, for which the T/C (dose: 6.9 mg/kg/injection, schedule: Q01DX009 (ip), vehicle: water) is 7 % of control and 13 % of control and 31 % of control; the T/C (dose: 19.2 mg/kg/injection, schedule: Q01DX009 (ip), vehicle: water) was 5 % of control and 14 % of control and 21 % of control; the T/C (dose: 32.0 mg/kg/injection, schedule: Q01DX009 (ip), vehicle: water) was 15 % of control and 17 % of control.

For `CC(=O)C(=O)O.CC(=O)C(=O)O.[NH-]C1CCCCC1[NH-].[Pt+2]` (centres undefined), the T/C was 67 % of control (dose: 9.37 mg/kg/injection, schedule: Q04DX003 (sc), vehicle: other); 76 % of control (dose: 18.75 mg/kg/injection, schedule: Q04DX003 (sc), vehicle: other); 80 % of control (dose: 37.5 mg/kg/injection, schedule: Q04DX003 (sc), vehicle: other).

`NC(CNC(=O)CBr)C(=O)O` (centres undefined): the T/C reads like this: (dose: 75.0 mg/kg/injection, schedule: Q04DX003 (sc), vehicle: water) 105 % of control; (dose: 150.0 mg/kg/injection, schedule: Q04DX003 (sc), vehicle: water) 79 % of control.

For the compound `O=C1N[C@H]2[C@H](CS[C@H]2CCCCC(=O)N(CCP(c2ccccc2)c2ccccc2)CCP(c2ccccc2)c2ccccc2)N1`, the T/C reads like this: under setting [2], 84 % of control; under setting [3], 64 % of control; (dose: 1200.0 mg/kg/injection, schedule: Q04DX003 (sc), vehicle: Klucel (hydroxypropylcellulose) (HPC)) 87 % of control; (dose: 2400.0 mg/kg/injection, schedule: Q04DX003 (sc), vehicle: Klucel (hydroxypropylcellulose) (HPC)) 71 % of control.

Take `COc1ccc2c(ccc3oc([N+](=O)[O-])cc32)c1`: the T/C reads like this: (dose: 150.0 mg/kg/injection, schedule: Q04DX003 (sc), vehicle: Klucel (hydroxypropylcellulose) (HPC)) 88 % of control; under setting [2], 96 % of control; under setting [3], 86 % of control.

The values above are taken from PubChem BioAssay AID266 (DTP/NCI, 2004).
